Data on 1 compound can be found in patent US20250152576A1, “INJECTABLE FORMULATION COMPRISING ISOXAZOLINE DERIVATIVE AND METHOD FOR PREPARING SAME” (LG CHEM, LTD., priority 2022, published 2025).

The nature of data set [1]: Change in API purity during preparation of freeze-drying formulation, UPLC. Type of data set: physicochemical. The following applies: API powder before dissolving in the solvent composition. The procedure:
A final API freeze-drying formulation was prepared as described in Table 16 below.
In order to confirm the change in purity of the API during the preparation of the final API freeze-drying formulation, the purity of the API powder before dissolving in the solvent composition, and the API purity during the preparation of the API mixture solution and after freeze-drying were measured using UPLC.

Data set [2] can be described thus: Solubility of compound of Formula 1 in water and solvents of various compositions. The data set is classed as physicochemical. The text has this:
Further, it was confirmed that the compound of Formula 1 has the property of reducing the pH of a solution while being dissolved in a solvent.

Molecules are shown by their SMILES.

As to `CC(C)[C@@]1(C(=O)N[C@H]2CC(=O)O[C@]2(O)CF)CC(c2nccc3ccccc23)=NO1` [Compound of Formula 1, (R)-N-((2S,3S)-2-(fluoromethyl)-2-hydroxy-5-oxotetrahydrofuran-3-yl)-5-isopropyl-3-(isoquinolin-1-yl)-4,5-dihydroisoxazol-5-carboxamide], the “Purity (%)” value in data set [1] worked out at 98.6%. The “solubility in acidic solvents” value in data set [2] (acidic solvents of pH 4 or less containing phosphate buffer, solubilizing agent and pH adjusting agent) is recorded as “hardly soluble”. Moreover, the solubility in water entry in data set [2] (water) is “poorly soluble in water”. Moreover, the “solubility in weak acidic and basic solvents” value in data set [2] (weak acidic solvents of pH 6 or more and basic solvents of pH 7.5 or more) is “dissolved well”.
